Here are results for 17 molecules from ChEMBL document CHEMBL5113376, “Antimalarial application of quinones: A recent update” (Eur J Med Chem, 2021).

The structures appear in SMILES notation. Converted amounts (≈) assume the structure as drawn.

Series [1] has as its system Plasmodium falciparum. The experiment in a line: Antimalarial activity against chloroquine resistant Plasmodium falciparum K1 incubated for 72 hrs by SYBR green staining based fluorescence reader method. The note with it: K1, 72 h. The class given is functional, organism-based.
The nature of series [2]: Cytotoxicity against African green monkey Vero cells. The class given is toxicity, cell-based. As to conditions: chlorocebus sabaeus.
Series [3] is described as follows: Selectivity index, ratio of CC50 for african green monkey Vero cells to IC50 for Chloroquine resistant Plasmodium falciparum K1. Type of series: toxicity. As to conditions: read-out: Ratio CC50/IC50.
Series [4] deals with Plasmodium falciparum. The experiment in a line: Antiplasmodial activity against Chloroquine resistant Plasmodium falciparum FcB1 incubated for 48 hrs by SYBR green I based fluorescence assay. Type of series: functional, organism-based. The note with it: FcB1, 48 h.
In series [5] the test system is Plasmodium berghei. Kind of series: In vivo plasmodial activity against Plasmodium berghei ANKA infected in Swiss mouse assessed as survival rate at 50 mg/kg, ip for 4 days after infection relative to control. Type of series: functional. The note with it: time 4 day.
Series [6] deals with Plasmodium falciparum. Kind of series: Antimalarial activity against chloroquine sensitive Plasmodium falciparum RKL-2. The class given is functional, organism-based.
For series [7], the system named is Plasmodium falciparum. The experiment in a line: Antimalarial activity against chloroquine resistant Plasmodium falciparum RKL-9. The class given is functional, organism-based.
Series [8] has as its system Plasmodium falciparum. Kind of series: Antiplasmodial activity against Plasmodium falciparum W2 assessed as inhibition of parasite growth after 48 hrs by pLDH assay. Type of series: functional, organism-based. As to conditions: W2, 48 h.
Series [9] concerns Plasmodium falciparum. The experiment in a line: Antimalarial activity against Plasmodium falciparum D6. The class given is functional, organism-based.
The subject of series [10] is Plasmodium falciparum. Kind of series: Antimalarial activity against Plasmodium falciparum W2. The class given is functional, organism-based.
Series [11] concerns Plasmodium berghei. The experiment in a line: Antimalarial activity against Plasmodium berghei. The class given is functional, organism-based.
For another series, the system named is HEK293. The experiment in a line: Cytotoxicity against HEK293 cells incubated for 48 hrs by MTT assay. The class given is functional. As to conditions: Homo sapiens. (Tetrazolium dyes change colour on reduction, which living cells bring about.)
The subject of the next series is HepG2. Kind of series: Cytotoxicity against human HepG2 cells incubated for 24 hrs by MTT assay. Type of series: functional.
The next series relates to A549. Kind of series: Cytotoxicity against human A549 cells incubated for 24 hrs by MTT assay. The class given is functional.
The nature of series [12]: Cytotoxicity against […] LLC-PK1 cells incubated for 24 hrs by MTT assay. The class given is toxicity, cell-based, Sus scrofa. The note with it: pig.
Series [13] can be described thus: Cytotoxicity against human MRC5 cells incubated for 24 hrs by MTT assay. Type of series: toxicity, cell-based.
The test system of series [14] is Plasmodium falciparum. The experiment in a line: Antimalarial activity against Plasmodium falciparum W2 incubated for 24 hrs. The class given is functional, organism-based. As to conditions: Plasmodium falciparum, W2, 24 h.
The subject of series [15] is Plasmodium falciparum. Kind of series: Antiplasmodial activity against Plasmodium falciparum K1. The class given is functional, organism-based.
For series [16], the system named is Plasmodium berghei. The experiment in a line: In vivo antiplasmodial activity against Plasmodium berghei infected in mouse assessed as reduction of parasitaemia at 50 mg/kg/day, ip for 4 days relative to control. Type of series: functional. As to conditions: time 4 day. Further details: scale not given: the % may be the effect or the level left.
Series [17] concerns Plasmodium berghei. Kind of series: In vivo antiplasmodial activity against Plasmodium berghei infected in mouse assessed as increase in mean survival time at 50 mg/kg/day, ip for 4 days (reference value: 4 to 6 days). The note with it: time 4 day. The class given is functional.
For series [18], the system named is Plasmodium berghei. The experiment in a line: In vivo antiplasmodial activity against Plasmodium berghei infected in mouse assessed as reduction of parasitaemia at 100 mg/kg/day, po for 4 days relative to control. Further details: scale not given: the % may be the effect or the level left. The class given is functional. As to conditions: time 4 day.
Series [19] has as its system Plasmodium falciparum. The experiment in a line: Antimalarial activity against Plasmodium falciparum RKL-2 assessed as inhibition of malarial growth by measuring dead rings/schizonts at 50 ug/ml relative to control. The class given is functional.
The test system of series [20] is Plasmodium falciparum. Kind of series: Antimalarial activity against Plasmodium falciparum 3D7 assessed as inhibition of malarial growth by measuring dead rings/schizonts at 50 ug/ml relative to control. The class given is functional.
Series [21] deals with Plasmodium falciparum. The experiment in a line: Antimalarial activity against Plasmodium falciparum 3D7. The class given is functional, organism-based.
Series [22] deals with Plasmodium falciparum. Kind of series: Antimalarial activity against Plasmodium falciparum RKL-2. The class given is functional, organism-based.
Series [23] has as its system Plasmodium falciparum. Kind of series: Antimalarial activity against drug resistant Plasmodium falciparum K1. Type of series: functional, organism-based.
Series [24] concerns Plasmodium falciparum. The experiment in a line: Antimalarial activity against Plasmodium falciparum NF54 by 96-well microtitre plate method based scintillation counting analysis. Type of series: functional, organism-based.
Series [25] concerns Plasmodium falciparum. The experiment in a line: Antimalarial activity against chloroquine sensitive Plasmodium falciparum RKL-2 by Giemsa staining method. Type of series: functional, organism-based.
Series [26] relates to Plasmodium falciparum. The experiment in a line: Antimalarial activity against chloroquine resistant Plasmodium falciparum RKL-9 by Giemsa staining method. The class given is functional, organism-based.
In series [27] the test system is Plasmodium falciparum. The experiment in a line: Antimalarial activity against Plasmodium falciparum by 96-well microtitre plate method based scintillation counting analysis. The class given is functional, organism-based.
The test system of series [28] is Plasmodium falciparum. Kind of series: Antimalarial activity against Plasmodium falciparum 3D7 by H-hypoxanthine incorporation based assay. The class given is functional, organism-based.
Series [29] deals with Plasmodium falciparum. The experiment in a line: Antimalarial activity against Plasmodium falciparum Dd2 by H-hypoxanthine incorporation based assay. The class given is functional, organism-based.
Series [30] relates to Plasmodium falciparum. Kind of series: Antimalarial activity against multi-drug resistant Plasmodium falciparum K1. The class given is functional, organism-based.
The test system of series [31] is Plasmodium falciparum. The experiment in a line: Antimalarial activity against Plasmodium falciparum D10. The class given is functional, organism-based.
Series [32] is described as follows: Cytotoxicity against HMEC-1 cells. The note with it: human. Type of series: toxicity, cell-based.
Series [33] relates to Plasmodium falciparum. The experiment in a line: Antimalarial activity against Plasmodium falciparum 3D7 measured after 24 hrs by hypoxanthine based scintillation counting analysis. The note with it: read-out: ED50 (the source's name). The class given is functional.

Take `Cc1cc(O)c2c(c1)C(=O)c1cc(O)c(CN3CCN(C)CC3)c(O)c1C2=O`: in the series with Plasmodium falciparum [1], the half-inhibitory concentration (IC50) (as a rule, the concentration at which inhibition is half-maximal) is 2.48 µM. Half-maximal cytotoxicity in series [2] (CC50) was put at 782 µM. The selectivity ratio in series [3] was found to be 315.

`COc1ccc2c(c1)C(=O)C(=O)C1=C2OC(C)C1(C)C` (stereo unspecified) yielded an IC50 in the series with Plasmodium falciparum [4] of 0.845 µM. Moreover, the Activity in the series on Plasmodium berghei [5] is listed as 100%.

Turning to `CCCNCc1cc(NC2=C(O)C(=O)c3ccccc3C2=O)ccc1O`, the half-inhibitory concentration (IC50) turned out to be 0.453 mg/L (≈ 1.29 µM) in the series on Plasmodium falciparum [6] and 2.92 mg/L (≈ 8.29 µM) with Plasmodium falciparum [7].

Regarding `O=C1c2ccccc2C(=O)c2oc(Cc3ccccc3)cc21`, the IC50 in the series with Plasmodium falciparum [8] was 1.5 µM.

In the case of `O=C1C(O)=C([C@H]2CC[C@H](c3ccc(Cl)cc3)CC2)C(=O)c2ccccc21` [ATOVAQUONE], the IC50 with Plasmodium falciparum [9] is 0.00034 µM; with Plasmodium falciparum [10], 0.001 µM; with Plasmodium berghei [11], 0.0197 µM. Besides, the half-maximal cytotoxic concentration (CC50) (usually the concentration that lowers cell viability or growth by half) with HEK293 is 0.049 µM.

Regarding `CC(C)=CCC1=C(O)C(=O)c2ccccc2C1=O` [LAPACHOL], the CC50 in the series with HepG2 and in the series with A549 was ≥ 285 µM in each case. For the same molecule, the CC50 at 24 h in [12] and in [13] was ≥ 285 µM throughout. In the series with Plasmodium falciparum [14], the half-maximal inhibitory concentration (IC50) worked out at 80 µM.

In turn, `O=C(O)c1cc2c(o1)C(=O)C1=C(C2=O)S(=O)(=O)C=CN1` came in with an IC50 in the series with Plasmodium falciparum [15] of 0.12 µM. The Activity is given as 85.7% in the series with Plasmodium berghei [16] and 47% in the series with Plasmodium berghei [18]. Moreover, the Time with Plasmodium berghei [17] came to 9 days.

For `O=C1C(O)=C(C(Nc2cccc([N+](=O)[O-])c2)c2ccc([N+](=O)[O-])cc2)C(=O)c2ccccc21` (stereo unspecified), the inhibition – broadly, the percentage by which the read-out fell short of the control – at 50 µg/mL with Plasmodium falciparum [19] was found to be 70%; in the series on Plasmodium falciparum [20], 72.5%. Also, the half-inhibitory concentration (IC50) in the series with Plasmodium falciparum [21] stood at 0.475 µM; in the series with Plasmodium falciparum [22], 1.39 µM.

As to `CCCn1c2c([n+](C(C)C)c1C)C(=O)c1ccccc1C2=O`, in the series on Plasmodium falciparum [23], the 50% inhibitory concentration (IC50) was determined as 0.0032 µM.

`COc1cc(O)c(-c2c(C)cc(O)c3c2C(=O)c2cccc(O)c2C3=O)c(O)c1C(C)=O` [KNIPHOLONE] had an IC50 in the series on Plasmodium falciparum [24] of 1.7 µM.

As to `O=C1C(O)=C(NCCNc2ccnc3cc(Cl)ccc23)C(=O)c2ccccc21`, the results for the IC50 in the series with Plasmodium falciparum [25] and in the series on Plasmodium falciparum [26] were 0.391 mg/L (≈ 0.993 µM) and 0.684 mg/L (≈ 1.74 µM), respectively.

`Cc1cc(O)c2c(c1)C(=O)C(c1c(C)cc3c(c1O)C(=O)C=CC3=O)=CC2=O` [DIOSPYRIN]: in the series with Plasmodium falciparum [27], 3.29 mg/L (≈ 8.79 µM) corresponded to half-maximal inhibition (IC50).

As for `CC1=C(Cc2ccncc2)C(=O)c2ccccc2C1=O`, the values for the half-maximal inhibitory concentration (IC50) in the series with Plasmodium falciparum [28] and in the series with Plasmodium falciparum [29] were 0.067 µM and 0.069 µM, respectively.

Turning to `CSC1=CC2=C(C(=O)c3ccc([C@H]4C[C@@H](O)[C@H](O)[C@@H](C)O4)c(O)c3C2=O)[C@@]2(O)C(=O)C[C@](C)(O)C[C@@]12O`, the IC50 in the series on Plasmodium falciparum [30] came to 0.0534 mg/L (≈ 0.1 µM).

Take `COC1=C(Cc2ccc(OC)cc2)C(=O)C2=C(NCCS2(=O)=O)C1=O`: the IC50 was 1.21 µM in the series on Plasmodium falciparum [10], 1.22 µM with Plasmodium falciparum [31] and 17.9 µM in series [32].

Take `Cc1cc(O)c2c(c1)C(O)(c1ccc3c(c1O)C(=O)c1c(O)cc(C)c(O)c1C3=O)c1cccc(O)c1C2=O` (stereo unspecified): the EC50 with Plasmodium falciparum [33] stood at 0.537 mg/L (≈ 1.02 µM).

As for `O=C1C(O)=C(C(c2ccccc2O)N2CCCC2)C(=O)c2ccccc21` (stereo unspecified), the inhibition at 50 µg/mL in the series with Plasmodium falciparum [19] was 70%; with Plasmodium falciparum [20], 72.5%. Also, the half-maximal inhibitory concentration (IC50) worked out at 0.411 mg/L with Plasmodium falciparum [21] and 1.17 mg/L with Plasmodium falciparum [22].
